The text below walks through data of patent EP4644375A1, “SUBSTITUTED HYDROQUINOLINES FOR THE TREATMENT OF GLIOBLASTOMA MULTIFORME” (Molius Saglik Teknolojileri Anonim Sirketi, priority 2024, dated 2025).

Molecules are shown by their SMILES.

Series [1] has as its system U138-MG human glioma cell. Briefly: Cell proliferation analysis (MTT). Format: cell-based. Conditions: Homo sapiens, 48 h, 10 µM, two days, MTT.
In the next series the test system is U87-MG human glioma cell. Briefly: Cell proliferation analysis (MTT). Format: cell-based. Conditions: Homo sapiens, U-87 MG, 48 h, 10 µM, two days, MTT.
Series [2] has as its system GBM xenograft rat model. Briefly: In vivo GBM rat model: survival. To be noted: GBM rats, 30 mg/kg oral gavage once daily for 5 days, 14th to 28th day, compared to untreated GBM rats. As for the experimental part:
(§1) An in Vivo study was performed to assess the therapeutic potential of TR-G002, TR-G045, TR-G053, TR-G066, TR-G071 and TR-G091 in the GBM xenograft rat model when administered orally by gavage for five consecutive days. 152 female rats of the Sprague Dawley strain were allocated to the study. Six groups of sixteen females were given dose of 30 mg/kg of the respective target compounds. […] The study design can be seen in Fig. 11 and Table 10.
(§2) Female Sprague Dawley rats (age: 6-8 weeks; weight: 255-310 g; ATADEM, Erzurum, Turkey) were utilized in the study. Rats underwent anaesthesia with 5% isoflurane, maintained at 2% isoflurane (1 L/min oxygen), and were positioned in a stereotactic frame for cell implantation (Stoelting Co., IL). […] A burr hole was drilled 1-mm anterior and 3-mm lateral to the right bregma. A microsyringe (Hamilton 1700 series) containing 5×10^4 U87-MG cells suspended in 5 µL of medium at 37 °C was advanced to a depth of 4 mm into the brain. The cells were injected at a rate of 3 µL/ min. Bone wax was used to fill the burr hole to prevent cell suspension reflux. The incision was sutured, and 1 mL of Meloxicam (5 mg/mL; Metacam, Boehringer Ingelheim Vetmedica, Ingelheim, Germany) was administered via a subcutaneous injection.
(§3) Fourteen days after inoculation, tumor development in rats was visualized and confirmed through magnetic resonance imaging (MRI). Rats confirmed to have developed tumors were then distributed into six different groups for treatment. […] 9 days after the final treatment dose, the rats underwent another MRI scan and blood and brain samples were taken under anaesthesia.

For series [3], the system named is GBM xenograft rat model. Briefly: In vivo GBM rat model: MRI analysis of tumor volumes. To be noted: GBM rats, 30 mg/kg oral, 5 days, ranking. How it is done: as §1, §2, §3
The anaesthetic was administered via an intraperitoneal route on animals fixed in the supine position with parallel hind limbs. MRI was performed using a 3 Tesla clinical scanner (Magnetom Skyra; Siemens Healthineers, Erlangen, Germany). Rats were placed in the prone position. T2-SPACE (sampling perfection with application-optimized contrast using different flip angle Evolution) sequence was obtained to view the brain in coronal and transverse planes. (TR: 6000 ms, TE: 100 ms, voxel size: 0.5 × 0.5 × 1 mm, 34 slices, slice thickness: 2 mm, slice spacing: 0.6 mm). The volume measurements of brain tumors were performed manually. One radiologist calculated the tumour volume - manually measuring tumour length (L), width (W), and height (H) - and then calculated the tumour volume using the formula 0.5236 × L × W × H (Stuppner S et al., 2020).

In series [4] the test system is GBM xenograft rat model. Briefly: In vivo GBM rat model: histopathological examination of brain tissues. Conditions: H&E, GBM rats, 30 mg/kg oral, 5 days. How it is done: as §1, §2, §3
Brain tissue samples were fixed in a 10% buffered formaldehyde solution. After fixation, the tissues were processed through graded alcohol and xylene series and embedded in paraffin blocks. Sections of 5 µm thickness were taken from the paraffin blocks at intervals of 50-100 µm. Hematoxylin and eosin staining was performed on these sections to evaluate histopathological changes. Histopathological findings included tumor focus size, necrotic area, vascular proliferation, and cellular proliferation patterns. Tumor focus size was categorized as follows based on the diameter measured with a 4X objective on the microscope: >3500 µm was considered very severe, 3499-2000 µm severe, 1999-1000 µm moderate, 999-500 µm mild, and <500 µm very mild. Necrotic area size was classified based on the diameter of necrosis: >1500 µm as very severe, 1499-1000 µm severe, 999-500 µm moderate, 499-200 µm mild, and <199 µm very mild.

Series [5] in a line: In vivo GBM rat model: haematology. To be noted: GBM rats, 30 mg/kg oral, 5 days, blood at necropsy. How it is done:
The parameters that were analysed can be seen in Table 11.

Series [6] can be described thus: Peripheral blood micronucleus assay. The series is classed as in vivo, Rat. Conditions: GBM rats, 30 mg/kg oral, 5 days, 1000 cells per animal evaluated. How it is done:
Blood smears were made on clean microscope slides, allowed to air-dry, treated with methanol for fixation, and then stained with Giemsa (10% in 0.1 mM of sodium phosphate buffer, pH 6.8) for 10 min. After washing with PBS, the slides were examined under a light microscope. The frequencies of micronuclei (MN) were calculated by evaluating 1000 cells per animal.

For `COc1cc(NC(=O)COc2ccc3c(c2)CCC(=O)N3)cc(OC)c1` [TR-G091, N-(3,5-dimethoxyphenyl)-2-((2-oxo-1,2,3,4-tetrahydroquinolin-6-yl)oxy)acetamide], in series [1], the activity at 10 µM worked out at 86% and the inhibition (in general, the relative decrease from the control value, in per cent) at 10 µM turned out to be 14%. In the series on U87-MG human glioma cell, the activity at 10 µM was 101% and the inhibition at 10 µM is -1%. The survival entry in the series on GBM xenograft rat model [2] is reported as “prolonged survival”. Further, the “antitumor activities, order” value in the series on GBM xenograft rat model [3] is recorded as “TR-G066> TR-G045> TR-G002>TMZ> TR-G091> TR-G053> TR-G071”. Besides, in the series on GBM xenograft rat model [4], the “necrosis (grade)” value is reported as “Moderate”; the “tumor focus (description)” value is “extended tumor focus encompassing both grey and white matter”. In series [5], this compound had an HCT of 43.95%, an HGB of 13.80 g/dL, an MCH of 17.90 pg and an MCHC of 31.40 g/dL. Further, in series [5], the MCV is 56.95 fL, the PLT was 744.50 10^9 /L, the RBC was 7.73 10^12/L and the WBC is recorded as 6.56 10^9/L. In series [6], the MN frequency came out at 11.65 ± 2.30.
